Patent US20230085307A1, “PYRIDAZINONE COMPOUND AND HERBICIDE” (NISSAN CHEMICAL CORPORATION, priority 2019, published 2023)

Tests used:
southern crabgrass = test: Test Example 4: herbicidal effect by soil treatment (Table 19, symbol F); type: in vivo, southern crabgrass (Digitaria ciliaris); settings: for herbicidal effect on F: southern crabgrass: amount of applied herbicide 320 g/ha
Outline: (§1)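 In this soil treatment, the formulated compound reached the seeds only through the soil: seeds were buried about 1.5 cm deep in sterilized diluvial soil, then the diluted emulsion was sprayed over the surface. After three weeks at 25° C. to 30° C. in a greenhouse, effects were graded on criteria from an earlier test.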

barnyard grass [1] = test: Test Example 5: herbicidal effect by foliage application, plastic box (Table 20, symbol H); type: in vivo, barnyard grass (Echinochloa crus-galli); settings: foliage application
Outline: (§2)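 Plants were sown into sterilized diluvial soil under about 1.5 cm cover and kept in a greenhouse at 25° C. to 30° C. Fourteen days on, foliage received an even spray of the diluted emulsion. Herbicidal or crop effect was judged three weeks afterwards.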

redroot pigweed [2] = test: Test Example 4: herbicidal effect by soil treatment (Table 19, symbol N); type: in vivo, redroot pigweed (Amaranthus retroflexus); settings: for herbicidal effect on N: redroot pigweed: amount of applied herbicide 320 g/ha
Outline: as §1

velvetleaf = test: Test Example 4: herbicidal effect by soil treatment (Table 19, symbol M); type: in vivo, velvetleaf (Abutilon theophrasti); settings: for herbicidal effect on M: velvetleaf: amount of applied herbicide 320 g/ha
Outline: as §1

chickweed = test: Test Example 5: herbicidal effect by foliage application, plastic box (Table 20, symbol P); type: in vivo, common chickweed (Stellaria media); settings: foliage application
Outline: as §2

green foxtail = test: Test Example 4: herbicidal effect by soil treatment (Table 19, symbol G); type: in vivo, green foxtail (Setaria viridis); settings: for herbicidal effect on G: green foxtail: amount of applied herbicide 320 g/ha
Outline: as §1

Japanese bulrush = test: Test Example 2: herbicidal activity, application during weed generation under submerged conditions (Table 17, symbol B); type: in vivo, Japanese bulrush (Schoenoplectus juncoides); settings: AAH 320 g/ha; application during weed generation, submerged conditions
Outline: (§3)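 Mixed weed seedlings in alluvial soil under a 4 cm water layer, greenhouse-grown at 25–30° C. Compound given as a diluted emulsion into the floodwater at the 1–2 leaf stage; response graded after three weeks.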

late watergrass = test: Test Example 2: herbicidal activity, application during weed generation under submerged conditions (Table 17, symbol A); type: in vivo, late watergrass (Echinochloa oryzicola); settings: AAH 320 g/ha; application during weed generation, submerged conditions
Outline: as §3

wild oat = test: Test Example 4: herbicidal effect by soil treatment (Table 19, symbol I); type: in vivo, wild oat (Avena fatua); settings: for herbicidal effect on I: wild oat: amount of applied herbicide 320 g/ha
Outline: as §1

barnyard grass [3] = test: Test Example 4: herbicidal effect by soil treatment (Table 19, symbol H); type: in vivo, barnyard grass (Echinochloa crus-galli); settings: for herbicidal effect on H: barnyard grass: amount of applied herbicide 320 g/ha
Outline: as §1

blackgrass = test: Test Example 4: herbicidal effect by soil treatment (Table 19, symbol J); type: in vivo, blackgrass (Alopecurus myosuroides); settings: for herbicidal effect on J: blackgrass: amount of applied herbicide 320 g/ha
Outline: as §1

windgrass = test: Test Example 5: herbicidal effect by foliage application, plastic box (Table 20, symbol L); type: in vivo, windgrass (Apera spica-venti); settings: foliage application
Outline: as §2

redroot pigweed [4] = test: Test Example 5: herbicidal effect by foliage application, plastic box (Table 20, symbol N); type: in vivo, redroot pigweed (Amaranthus retroflexus); settings: foliage application
Outline: as §2

persian speedwell [5] = test: Test Example 4: herbicidal effect by soil treatment (Table 19, symbol R); type: in vivo, Persian speedwell (Veronica persica); settings: for herbicidal effect on R: persian speedwell: amount of applied herbicide 320 g/ha
Outline: as §1

oval-leafed pondweed = test: Test Example 2: herbicidal activity, application during weed generation under submerged conditions (Table 17, symbol C); type: in vivo, oval-leafed pondweed (Monochoria vaginalis); settings: AAH 320 g/ha; application during weed generation, submerged conditions
Outline: as §3

persian speedwell [6] = test: Test Example 5: herbicidal effect by foliage application, plastic box (Table 20, symbol R); type: in vivo, Persian speedwell (Veronica persica); settings: foliage application
Outline: as §2

[7] = AAH 320 g/ha, three weeks after application
[8] = 320 g/ha, evaluated three weeks after application

Structure (SMILES) | herbicidal effect rating, B: Japanese bulrush (Japanese bulrush) | herbicidal effect rating, A: late watergrass (late watergrass) | herbicidal effect rating, C: oval-leafed pondweed (oval-leafed pondweed) | herbicidal effect on F: southern crabgrass (southern crabgrass) | herbicidal effect on H: barnyard grass (criteria 0-5) (barnyard grass [1]; [8]) | herbicidal effect on N: redroot pigweed (redroot pigweed [2]) | herbicidal effect on M: velvetleaf (velvetleaf) | herbicidal effect on P: chickweed (criteria 0-5) (chickweed; [8]) | herbicidal effect on G: green foxtail (green foxtail) | herbicidal effect on I: wild oat (wild oat) | herbicidal effect on H: barnyard grass (barnyard grass [3]) | herbicidal effect on J: blackgrass (blackgrass) | herbicidal effect on L: windgrass (criteria 0-5) (windgrass; [8]) | herbicidal effect on N: redroot pigweed (criteria 0-5) (redroot pigweed [4]; [8]) | herbicidal effect on R: persian speedwell (persian speedwell [5]) | herbicidal effect on R: persian speedwell (criteria 0-5) (persian speedwell [6]; [8]) | also measured
CCCC(=O)Oc1c(C)nn(C)c(=O)c1-c1c(-c2ccc([N+](=O)[O-])cc2)sc2ccccc12 [1-152] | 3 (Herbicidal rate of 40% or more and less than 70%) | 3 (Herbicidal rate of 40% or more and less than 70%) | 0 (Herbicidal rate of 5% or less (almost no effect)) | – | – | – | – | – | – | – | – | – | – | – | – | – | F: southern crabgrass, herbicidal effect rating (southern crabgrass; AAH 320 g/ha): 1 (Herbicidal rate of 5% or more and less than 20%); H: barnyard grass, herbicidal effect (barnyard grass [1]; [7]): 4 (Herbicidal rate of 70% or more and less than 90%); N: redroot pigweed, herbicidal effect rating (redroot pigweed [2]; AAH 320 g/ha): 3 (Herbicidal rate of 40% or more and less than 70%); M: velvetleaf, herbicidal effect rating (velvetleaf; AAH 320 g/ha): 0 (Herbicidal rate of 5% or less (almost no effect)); P: chickweed, herbicidal effect (chickweed; [7]): 5 (Herbicidal rate of 90% or more (almost completely withered)); G: green foxtail, herbicidal effect rating (green foxtail; AAH 320 g/ha): 2 (Herbicidal rate of 20% or more and less than 40%); I: wild oat, herbicidal effect rating (wild oat; AAH 320 g/ha): 0 (Herbicidal rate of 5% or less (almost no effect)); H: barnyard grass, herbicidal effect rating (barnyard grass [3]; AAH 320 g/ha): 3 (Herbicidal rate of 40% or more and less than 70%); J: blackgrass, herbicidal effect rating (blackgrass; AAH 320 g/ha): 0 (Herbicidal rate of 5% or less (almost no effect)); L: windgrass, herbicidal effect (windgrass; [7]): 0 (Herbicidal rate of 5% or less (almost no effect)); N: redroot pigweed, herbicidal effect (redroot pigweed [4]; [7]): 5 (Herbicidal rate of 90% or more (almost completely withered)); R: persian speedwell, herbicidal effect rating (persian speedwell [5]; AAH 320 g/ha): 3 (Herbicidal rate of 40% or more and less than 70%); R: persian speedwell, herbicidal effect (persian speedwell [6]; [7]): 5 (Herbicidal rate of 90% or more (almost completely withered))
CCCC(=O)Oc1c(C)nn(C)c(=O)c1-c1c(-c2cccc(OCC(C)C)c2)sc2ccc(F)cc12 [2-222] | 3 (Herbicidal rate of 40% or more and less than 70%) | 2 (Herbicidal rate of 20% or more and less than 40%) | 3 (Herbicidal rate of 40% or more and less than 70%) | 1 (Herbicidal rate of 5% or more and less than 20%) | 5 (Herbicidal rate of 90% or more (almost completely withered)) | 5 (Herbicidal rate of 90% or more (almost completely withered)) | 3 (Herbicidal rate of 40% or more and less than 70%) | 5 (Herbicidal rate of 90% or more (almost completely withered)) | 2 (Herbicidal rate of 20% or more and less than 40%) | 0 (Herbicidal rate of 5% or less (almost no effect)) | 5 (Herbicidal rate of 90% or more (almost completely withered)) | 4 (Herbicidal rate of 70% or more and less than 90%) | 4 (Herbicidal rate of 70% or more and less than 90%) | 5 (Herbicidal rate of 90% or more (almost completely withered)) | 5 (Herbicidal rate of 90% or more (almost completely withered)) | 5 (Herbicidal rate of 90% or more (almost completely withered)) | –
CCCC(=O)Oc1c(C)nn(C)c(=O)c1-c1c(-c2ccc(OC)c(OC)c2)sc2ccc(F)cc12 [2-089] | 3 (Herbicidal rate of 40% or more and less than 70%) | 4 (Herbicidal rate of 70% or more and less than 90%) | 4 (Herbicidal rate of 70% or more and less than 90%) | – | – | – | – | – | – | – | – | – | – | – | – | – | herbicidal effect rating, F: southern crabgrass (southern crabgrass; 320 g/ha): 4 (Herbicidal rate of 70% or more and less than 90%); herbicidal effect on H: barnyard grass (barnyard grass [1]; [8]): 4 (Herbicidal rate of 70% or more and less than 90%); herbicidal effect rating, N: redroot pigweed (redroot pigweed [2]; 320 g/ha): 4 (Herbicidal rate of 70% or more and less than 90%); herbicidal effect rating, M: velvetleaf (velvetleaf; 320 g/ha): 4 (Herbicidal rate of 70% or more and less than 90%); herbicidal effect on P: chickweed (chickweed; [8]): 5 (Herbicidal rate of 90% or more (almost completely withered)); herbicidal effect rating, G: green foxtail (green foxtail; 320 g/ha): 5 (Herbicidal rate of 90% or more (almost completely withered)); herbicidal effect rating, I: wild oat (wild oat; 320 g/ha): 0 (Herbicidal rate of 5% or less (almost no effect)); herbicidal effect rating, H: barnyard grass (barnyard grass [3]; 320 g/ha): 4 (Herbicidal rate of 70% or more and less than 90%); herbicidal effect rating, J: blackgrass (blackgrass; 320 g/ha): 0 (Herbicidal rate of 5% or less (almost no effect)); herbicidal effect on L: windgrass (windgrass; [8]): 0 (Herbicidal rate of 5% or less (almost no effect)); herbicidal effect on N: redroot pigweed (redroot pigweed [4]; [8]): 4 (Herbicidal rate of 70% or more and less than 90%); herbicidal effect rating, R: persian speedwell (persian speedwell [5]; 320 g/ha): 5 (Herbicidal rate of 90% or more (almost completely withered)); herbicidal effect on R: persian speedwell (persian speedwell [6]; [8]): 5 (Herbicidal rate of 90% or more (almost completely withered))
CCCSc1ccc(-c2sc3ccc(F)cc3c2-c2c(OC(=O)CCC)c(C)nn(C)c2=O)cc1 [2-249] | 0 (Herbicidal rate of 5% or less (almost no effect)) | 4 (Herbicidal rate of 70% or more and less than 90%) | 2 (Herbicidal rate of 20% or more and less than 40%) | 3 (Herbicidal rate of 40% or more and less than 70%) | 5 (Herbicidal rate of 90% or more (almost completely withered)) | 5 (Herbicidal rate of 90% or more (almost completely withered)) | 1 (Herbicidal rate of 5% or more and less than 20%) | 5 (Herbicidal rate of 90% or more (almost completely withered)) | 4 (Herbicidal rate of 70% or more and less than 90%) | 0 (Herbicidal rate of 5% or less (almost no effect)) | 4 (Herbicidal rate of 70% or more and less than 90%) | 0 (Herbicidal rate of 5% or less (almost no effect)) | 4 (Herbicidal rate of 70% or more and less than 90%) | 5 (Herbicidal rate of 90% or more (almost completely withered)) | 4 (Herbicidal rate of 70% or more and less than 90%) | 5 (Herbicidal rate of 90% or more (almost completely withered)) | –
